Test results as given in PMC10885137, “Site-Directed Mutagenesis of VvCYP76F14 (Cytochrome P450) Unveils Its Potential for Selection in Wine Grape Varieties Linked to the Development of Wine Bouquet” (Journal of Agricultural and Food Chemistry, 2024).

How the values were obtained:
Settings in all cases: 1 mM NADPH, ATR1 reductase, 100 mM Na/K phosphate pH 5.0, 26 °C, 1 h
[1] = target: VvCYP76F14 (from "L35", full-bodied) (Vitis vinifera, UniProt A0A1B2ZBX8, G304A, form not given)
Excerpt: (§1) UPLC-MS/MS substrate depletion kinetics on VvCYP76F14 (from "L35", full-bodied)

[2] = target: VvCYP76F14 (from "L35", full-bodied) (Vitis vinifera, UniProt A0A1B2ZBX8, T188A, form not given)
Excerpt: as §1

[3] = target: VvCYP76F14 (from "L35", full-bodied) (Vitis vinifera, UniProt A0A1B2ZBX8, F435A, form not given)
Excerpt: as §1

[4] = target: VvCYP76F14 (from "L35", full-bodied) (Vitis vinifera, UniProt A0A1B2ZBX8, I120L, form not given)
Excerpt: as §1

[5] = target: VvCYP76F14 (from "L35", full-bodied) (Vitis vinifera, UniProt A0A1B2ZBX8, L298V, form not given)
Excerpt: as §1

[6] = target: VvCYP76F14 (from "L35", full-bodied) (Vitis vinifera, UniProt A0A1B2ZBX8, D306A, form not given)
Excerpt: as §1

[7] = target: VvCYP76F14 (from "L35", full-bodied) (Vitis vinifera, UniProt A0A1B2ZBX8)
Excerpt: as §1

[8] = target: VvCYP76F14 (from "L35", full-bodied) (Vitis vinifera, UniProt A0A1B2ZBX8, S485A, form not given)
Excerpt: as §1

Chain of VvCYP76F14 (from "L35", full-bodied) (Vitis vinifera, UniProt A0A1B2ZBX8, F435A, form not given) (A0A1B2ZBX8 entry or part of it F435A, form open): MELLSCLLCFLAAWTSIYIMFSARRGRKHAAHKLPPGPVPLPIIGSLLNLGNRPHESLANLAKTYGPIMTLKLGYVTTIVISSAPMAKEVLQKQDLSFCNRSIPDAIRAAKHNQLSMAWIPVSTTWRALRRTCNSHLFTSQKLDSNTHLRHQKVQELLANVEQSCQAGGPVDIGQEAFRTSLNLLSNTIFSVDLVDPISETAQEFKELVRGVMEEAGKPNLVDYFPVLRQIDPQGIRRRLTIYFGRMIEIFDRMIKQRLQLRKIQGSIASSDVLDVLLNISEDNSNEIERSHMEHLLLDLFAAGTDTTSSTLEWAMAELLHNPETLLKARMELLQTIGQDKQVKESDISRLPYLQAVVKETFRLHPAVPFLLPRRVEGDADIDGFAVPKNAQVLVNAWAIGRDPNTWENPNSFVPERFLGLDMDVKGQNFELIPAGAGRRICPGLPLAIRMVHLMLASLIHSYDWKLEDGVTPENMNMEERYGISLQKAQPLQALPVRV
Chain of VvCYP76F14 (from "L35", full-bodied) (Vitis vinifera, UniProt A0A1B2ZBX8) (A0A1B2ZBX8 entry or part of it): as the sequence (A0A1B2ZBX8 entry or part of it F435A, form open) above, with A435F counted along it
Chain of VvCYP76F14 (from "L35", full-bodied) (Vitis vinifera, UniProt A0A1B2ZBX8, I120L, form not given) (A0A1B2ZBX8 entry or part of it I120L, form open): as the sequence (A0A1B2ZBX8 entry or part of it F435A, form open) above, with I120L, A435F counted along it
Chain of VvCYP76F14 (from "L35", full-bodied) (Vitis vinifera, UniProt A0A1B2ZBX8, S485A, form not given) (A0A1B2ZBX8 entry or part of it S485A, form open): as the sequence (A0A1B2ZBX8 entry or part of it F435A, form open) above, with A435F, S485A counted along it
Chain of VvCYP76F14 (from "L35", full-bodied) (Vitis vinifera, UniProt A0A1B2ZBX8, L298V, form not given) (A0A1B2ZBX8 entry or part of it L298V, form open): as the sequence (A0A1B2ZBX8 entry or part of it F435A, form open) above, with L298V, A435F counted along it
Chain of VvCYP76F14 (from "L35", full-bodied) (Vitis vinifera, UniProt A0A1B2ZBX8, G304A, form not given) (A0A1B2ZBX8 entry or part of it G304A, form open): as the sequence (A0A1B2ZBX8 entry or part of it F435A, form open) above, with G304A, A435F counted along it
Chain of VvCYP76F14 (from "L35", full-bodied) (Vitis vinifera, UniProt A0A1B2ZBX8, D306A, form not given) (A0A1B2ZBX8 entry or part of it D306A, form open): as the sequence (A0A1B2ZBX8 entry or part of it F435A, form open) above, with D306A, A435F counted along it
Chain of VvCYP76F14 (from "L35", full-bodied) (Vitis vinifera, UniProt A0A1B2ZBX8, T188A, form not given) (A0A1B2ZBX8 entry or part of it T188A, form open): as the sequence (A0A1B2ZBX8 entry or part of it F435A, form open) above, with T188A, A435F counted along it

`C=CC(C)(O)CC/C=C(\C)CO` (centres unmarked) [(E)-8-hydroxylinalool] was tested, and the Km [1] was 170 ± 13.6 µM and the Km [2] was 77.4 ± 8.56 µM.

`C=CC(C)(O)CCC=C(C)C` (centres unmarked) [linalool] was tested, and the Km [3] was 288 ± 19.3 µM, the Km [4] was 156 ± 12.8 µM and the Km [5] was 74.7 ± 7.89 µM.

With `C=CC(C)(O)CC/C=C(\C)C=O` (centres unmarked) [(E)-8-oxolinalool] the Km [6] was 269 ± 17.7 µM, the Km [7] was 41.4 ± 4.93 µM and the Km [8] was 172 ± 9.99 µM.
